Assay results: US20020173447A1, “Cytostatic effects of fatty acid synthase inhibition” (priority 2001, published 2002)

Assays:
[1] = system: RKO colon carcinoma cells; experiment: DNA content of treated RKO cells by flow cytometry (cell cycle distribution); format: cell-based, human; settings: 10 μg/ml; for cell cycle distribution (DNA content), early time points: 5 and 8 h
Protocol: Cells were cultured in DMEM with 10% fetal bovine serum (Hyclone). Cells were screened periodically for mycoplasma contamination (Gen-probe). Cerulenin (Sigma) C-75 and TOFA, dissolved in DMSO, were added from 5 mg/ml stock solutions; the final concentration of DMSO in cultures was at or below 0.2%. Cells were exposed to cerulenin or C-75 for the indicated doses and time intervals, then detached from plastic with trypsin for flow cytometry analysis. DNA content was measured by multiparameter flow cytometry using a FACStar^Plus flow cytometer equipped with argon and krypton lasers (Becton Dickinson).

RKO cells = experiment: BrdU pulse/chase cell cycle progression by laser scanning cytometry; format: cell-based, human; settings: 10 μg/ml, chase 4-24 h
Protocol: A similar experiment measured cell cycle progression by pulse/chase labeling with bromodeoxyuridine (BrdU, FIG. 2). The BrdU-positive S-phase fraction at time zero progresses through the cell cycle at later time points. B. The progress of BrdU pulse-labeled RKO cells through the cell cycle was monitored over 24 h without inhibition of FAS, or during exposure to cerulenin (10 μg/ml) or C-75 (10 μg/ml).
Dual-parameter detection of Bromodeoxyuridine (BrdU) labeling and DNA content was performed using a laser scanning cytometer (Compucyte Corp.). Cell cultures were pulse-labeled for 20 min with 10 μM BrdU, and chased for the indicated times in the absence or presence of drug, then detached from plastic with trypsin, ethanol-fixed and applied to glass slides. Cells were subjected to standard heat-induced epitope retrieval (DAKO) before staining with anti-BrdU antibody (DAKO) and FITC-conjugated goat anti-mouse antibody (CALTAG, DAKO Autostainer™). DNA content was assessed after staining with 0.5% propidium iodide. Data were collected and analyzed using WinCyte software (Compucyte Corp.).
A 20-min exposure of proliferating cells to BrdU labeled the S-phase population at time zero. Chase samples were collected at 4, 8, 16 and 24 h. In control cultures (FIG. 2A), the BrdU-labeled population progressed through G2/M, first reappearing in the G1 population in the 8 h chase sample. […]

[2] = system: cyclin A-associated kinase activity; experiment: Immunocomplex-kinase assay after drug exposure of RKO cells, cyclin A; format: cell-based, human; settings: 10 μg/ml, later time points (16 and 24 h)
Protocol: The effect of FAS inhibitors on the activity of cyclin/cdk complexes in RKO cells was determined in a time course analysis. After RKO cells were exposed to FAS inhibitors for the indicated time periods, cyclin A- and cyclin B 1-associated kinase activities were determined by an immunocomplex-kinase assay.
Five×10^6 RKO cells per 100-mm plate were treated with 10 μg/ml cerulenin or C-75 for the indicated time intervals. The control cells received equivalent amounts of DMSO. After drug treatment, the plates were washed once and lysed with immunoprecipitation (IP) buffer (150 mM Tris, pH 7.4, 150 mM NaCl, 1% Triton X-100, 0.5% NP-40, 1 mM ethyleneglyco-bis-tetraacetic acid, 0.2 mM sodium vanadate, and 0.2 mM phenylmethylsulfonyl fluoride). Protein concentration was measured using the BCA Protein Assay Kit (Pierce). One hundred μg of protein from each sample was incubated at 4° C. for 1 h with 1 μg of primary antibody (anti-human cyclin A rabbit polyclonal antibody or anti-human cyclin B 1 monoclonal antibody, Santa Cruz) and then overnight after addition of Protein A or protein G-Sepharose (Santa Cruz). […] Samples were resolved by electrophoresis through 12% SDS-polyacrylamide gels and quantitated on a Storm 820 system (Molecular Dynamics). […]

p53 = experiment: Immunoblot of p53 protein in RKO cells; format: cell-based, human; settings: 10 μg/ml, 16 and 24 h
Protocol: (§1) Accumulation of p53 protein, and the p53-regulated cdk inhibitor p21WAF1/CIP1, were assayed by immunoblotting in a parallel time course after inhibition of FAS (FIG. 4). Cells were treated with cerulenin (10 μg/ml) (A) or C-75 (10 μg/ml) (B) for the stated exposure times, and analyzed by immunoblotting for p53 and p21 protein content, with actin as an internal control. One million cells per 60-mm plate were treated with 10 μg/ml cerulenin or C-75 in duplicate for the indicated time intervals; control cells received equivalent amounts of DMSO. After drug treatment, cells were lysed with 200 μl Laemmli sample buffer and boiled. Ten μl of each lysate per lane was separated by SDS-PAGE, transferred to nitrocellulose, and exposed to antibodies against p53 (Pab1801, Oncogene Research Products), p21 (6B6, PharMingen) or actin (I-19, Santa Cruz), followed by horseradish peroxidase-conjugated goat anti-mouse or rabbit anti-goat antibody (Pierce), enhanced chemiluminescence (Amersham) and autoradiography.

p21WAF1/CIP1 = experiment: Immunoblot of p21 protein in RKO cells; format: cell-based, human; settings: 10 μg/ml, 16 and 24 h
Protocol: as §1

MCF7 breast cancer cells = experiment: Alkaline single cell gel electrophoresis (comet assay), MCF7; format: cell-based, human; settings: 3 h, doses bracketing 75% survival at 24 h
Source text: This assay detects DNA strand breaks, and a spectrum of alkali-labile DNA damage at low levels (Singh, N. P., McCoy, M. T., Tice, R. R., and Schneider, E. L., “A simple Technique for Quantitation of Low Levels of DNA Damage in Individual Cells,” Experimental Cell Research, 175:184-191, (1988); Plappert, U., Raddatz, K., Roth, S., and Fliedner, T. M., “DNA-Damage Detection in Man After Radiation Exposure—the Comet Assay—Its Possible Application for Human Biomonitoring,” Stem Cells, 13 Supplement 1:215-222, (1995)).
Cerulenin- or C-75-treated MCF7 breast carcinoma cells were subjected to alkaline single cell gel electrophoresis (comet assay). MCF7 breast cancer cells were treated with cerulenin or C-75 for 3 h at doses bracketing 75% survival at 24 h. All experiments were repeated three times and duplicate slides from each experiment were prepared and scored. […] Neutralized, dehydrated slides were stained with ethidium bromide (2 ng/ml) and comets scored under a Nikon fluorescence microscope (with TRITC filters) coupled to a KOMET 4.0 software (Kinetic Imaging Ltd).
Olive tail moment indicates electrophoretic mobility of DNA induced by DNA damage. […] One hundred consecutive cells were scored from the middle of each slide, and the means calculated. The final results were expressed as the (mean of the individual means)±(standard deviation of the means). […]

RKO-p53 cells = experiment: Apoptosis by merocyanine 540 multiparameter flow cytometry; format: cell-based, human
Source text: The effect of p53 function on survival after FAS inhibition was investigated by comparing two pairs of isogenic cell lines with wild-type and altered p53 function. RKO cells were rendered p53-mutant by stable transfection with a dominant-negative mutant p53 gene (RKO-p53); the human breast carcinoma cell line MCF7 was rendered p53-deficient by constitutive expression of the human papilloma virus 16 E6 gene (MCF7-E6) (Fan, S., Smith, M. L., Rivet, D. J., 2nd, Duba, D., Zhan, Q., Kohn, K. W., Fornace, A. J., Jr., and PM, O. C., “Disruption of p53 Function Sensitizes Breast Cancer MCF-7 Cells to Cisplatin and Pentoxifylline,” Cancer Research, 55:1649-1654, (1995)).
Cells were exposed to cerulenin or C-75 for the indicated doses and time intervals, then detached from plastic with trypsin for flow cytometry analysis. Apoptosis was measured by multiparameter flow cytometry using a FACStar^Plus flow cytometer equipped with argon and krypton lasers (Becton Dickinson). […] Merocyanine 540-positive cells were identified using 488-nm excitation from an argon laser and a 575-nm DF26 bandpass filter for collection of events with increased red fluorescence. Data were collected and analyzed using CellQuest software (Becton Dickinson). […]

fatty acid synthesis = settings: cited from earlier work

SMILES: C/C=C/C/C=C/CCC(=O)[C@H]1O[C@H]1C(N)=O [cerulenin, (2R, 3S)-2,3-epoxy-4-oxo-7,10-trans,trans-dodecadienamide]
- cell cycle distribution (DNA content), early time points [1]: redistribution of cells into S phase and G2/M
- cell cycle distribution (DNA content), late time points ([1]; 16 and 24 h): S-phase fraction decreased substantially, with a redistribution of cells into G1 and G2/M
- cell cycle progression of BrdU pulse-labeled cells (RKO cells): substantial delays in cell cycle progression
- kinase activity associated with immunoprecipitated cyclin A complexes, later time points [2]: increased moderately
- p53 protein level (p53): induced accumulation
- p21 protein level (p21WAF1/CIP1): induced accumulation
- DNA damage, olive tail moment (MCF7 breast cancer cells): Neither cerulenin nor C-75 induced olive tail moments over background values
- apoptosis (MC540) in p53-deficient cells compared to parent line (RKO-p53 cells; RKO-p53 vs parent RKO, 24 h exposure, 5 or 10 μg/ml): large, dose-dependent increase in apoptosis

SMILES: C=C1C(=O)OC(CCCCCCCC)C1C(=O)O (stereo not shown) [C-75]
- cell cycle distribution (DNA content), early time points [1]: This effect was characteristic of both cerulenin and C-75 treatment
- cell cycle progression of BrdU pulse-labeled cells (RKO cells): exhibited a similar response
- kinase activity associated with immunoprecipitated cyclin A complexes, later time points [2]: increased moderately
- p53 protein level (p53): induced accumulation
- p21 protein level (p21WAF1/CIP1): induced accumulation
- DNA damage, olive tail moment (MCF7 breast cancer cells): Neither cerulenin nor C-75 induced olive tail moments over background values
- inhibitory effects on fatty acid synthesis (fatty acid synthesis): comparable to those seen with cerulenin

SMILES: CCCCCCCCCCCCCCOc1ccc(C(=O)O)o1 [TOFA, 5-(tetradecyloxy)-2-furoic acid]
- effect of pretreatment on FAS inhibitor mediated apoptosis (RKO-p53 cells; RKO-p53 cells, TOFA pretreatment): did rescue FAS inhibitor mediated apoptosis
